Laboratory results published in patent publication US20250263370A1 (Tay Therapeutics Limited, priority 2022, published 2025).
“And” between values parts separate entries of the source, which are not always exact repeats. Equal values may be shown once.

Tested on: collagen-induced arthritis
Experiment: Collagen-induced arthritis (CIA) model in rats: body weight, paw volume, clinical scores, clinical observations; for Average detailed clinical score, left hind limb: key of the grades not given here; for Average detailed clinical score, right hind limb: key of the grades not given here; for Detailed Clinical Scores: left forelimb: key of the grades not given here; for Detailed Clinical Scores: left hind limb: key of the grades not given here; for Detailed Clinical Scores: right forelimb: key of the grades not given here; for Detailed Clinical Scores: right hind limb: key of the grades not given here; for Detailed Clinical Scores: score: key of the grades not given here; for Mean overall clinical score ± SD: key of the grades not given here; for overall clinical score: key of the grades not given here
Conditions: for Average detailed clinical score, left hind limb / Average detailed clinical score, right forelimb / Average detailed clinical score, right hind limb / Average detailed clinical score, score / Mean overall clinical score ± SD / Overall clinical score / Average detailed clinical score, left forelimb / Detailed Clinical Scores: left forelimb / Detailed Clinical Scores: left hind limb / Detailed Clinical Scores: right forelimb / Detailed Clinical Scores: right hind limb / Detailed Clinical Scores: score: CIA rats; for Overall clinical score: individual animals #1-8; for Mean animal paw volume ± SD: group mean; for Animal paw volume percent change: individual animals; for Detailed Clinical Scores: left forelimb / Detailed Clinical Scores: left hind limb / Detailed Clinical Scores: right forelimb / Detailed Clinical Scores: right hind limb / Detailed Clinical Scores: score: individual animals ID 1-8

## CNC(=O)c1[nH]c(C(=O)NC2CCC2)cc1O[C@@H](C)c1ccccc1 (stereo in doubt) [Example 101, N^5-cyclobutyl-N^2-methyl-3-(1-phenylethoxy)-1H-pyrrole-2,5-dicarboxamide]
Day 15, 3 mg/kg
  Average detailed clinical score, left hind limb: 2.00
  Average detailed clinical score, right forelimb: 0.25
  Average detailed clinical score, right hind limb: 2.13
  Average detailed clinical score, score: 4.38
  Mean overall clinical score ± SD: 4 ± 2
  Overall clinical score: 2 and 3 (3×) and 6 (2×) and 8 and 4
Day 15, 10 mg/kg
  Average detailed clinical score, left forelimb: 0.00
  Average detailed clinical score, left hind limb: 1.75
  Average detailed clinical score, right forelimb: 0.00
  Average detailed clinical score, right hind limb: 1.50
  Average detailed clinical score, score: 3.25
  Mean overall clinical score ± SD: 3 ± 3
  Overall clinical score: 5 and 4 and 7
Day 15, 30 mg/kg
  Average detailed clinical score, left forelimb: 0.00
  Average detailed clinical score, left hind limb: 0.38
  Average detailed clinical score, right forelimb: 0.00
  Average detailed clinical score, right hind limb: 0.50
  Average detailed clinical score, score: 0.88
  Mean overall clinical score ± SD: 1 ± 1
Day 18, L paw, 3 mg/kg
  Mean animal paw volume ± SD: 2.49 mL
  Animal paw volume percent change: 83.52% and 101.14% and 98.86% and 81.04% and 106.51% and 80.59% and 82.40%
Day 18, L paw, 10 mg/kg
  Mean animal paw volume ± SD: 2.08 mL
  Animal paw volume percent change: 72.92% and 61.90% and 97.28% and 109.73% and 15.71% and 76.54%
Day 18, L paw, 30 mg/kg
  Mean animal paw volume ± SD: 1.70 mL
Day 18, R paw, 3 mg/kg
  Mean animal paw volume ± SD: 2.53 mL
  Animal paw volume percent change: 67.68% and 91.39% and 100.38% and 76.49% and 106.51% and 89.22% and 86.89%
Day 18, R paw, 10 mg/kg
  Mean animal paw volume ± SD: 2.02 mL
  Animal paw volume percent change: 58.36% and 65.34% and 94.21% and 111.20% and 22.39% and 46.36%
Day 18, R paw, 30 mg/kg
  Mean animal paw volume ± SD: 1.63 mL
Day 18, 3 mg/kg
  Detailed Clinical Scores: left forelimb: 0
  Detailed Clinical Scores: left hind limb: 3 and 4
  Detailed Clinical Scores: right forelimb: 0
  Detailed Clinical Scores: right hind limb: 4 and 3
  Detailed Clinical Scores: score: 7
  Average detailed clinical score, left forelimb: 0.50
  Average detailed clinical score, left hind limb: 3.88
  Average detailed clinical score, right forelimb: 0.50
  Average detailed clinical score, right hind limb: 3.88
  Average detailed clinical score, score: 8.75
  Mean overall clinical score ± SD: 9 ± 2
  Overall clinical score: 7 (2×) and 8 (4×) and 12 (2×)
Day 18, 10 mg/kg
  Average detailed clinical score, left forelimb: 0.00
  Average detailed clinical score, left hind limb: 2.50
  Average detailed clinical score, right forelimb: 0.88
  Average detailed clinical score, right hind limb: 2.25
  Average detailed clinical score, score: 5.63
  Mean overall clinical score ± SD: 6 ± 4
  Overall clinical score: 7 and 6 and 12
Day 18, 30 mg/kg
  Average detailed clinical score, left forelimb: 0.00
  Average detailed clinical score, left hind limb: 1.13
  Average detailed clinical score, right forelimb: 0.00
  Average detailed clinical score, right hind limb: 0.88
  Average detailed clinical score, score: 2.00
  Mean overall clinical score ± SD: 2 ± 2
Day 19, L paw, 3 mg/kg
  Mean animal paw volume ± SD: 2.64 mL
  Animal paw volume percent change: 91.95% and 116.35% and 108.75% and 85.50% and 107.28% and 90.11% and 81.65%
Day 19, L paw, 10 mg/kg
  Mean animal paw volume ± SD: 2.07 mL
  Animal paw volume percent change: 71.48% and 61.51% and 93.39% and 105.45% and 13.03%
Day 19, L paw, 30 mg/kg
  Mean animal paw volume ± SD: 1.76 mL
Day 19, R paw, 3 mg/kg
  Mean animal paw volume ± SD: 2.60 mL
  Animal paw volume percent change: 67.68% and 117.60% and 98.86% and 76.49% and 104.98% and 107.81% and 86.14%
Day 19, R paw, 10 mg/kg
  Mean animal paw volume ± SD: 2.02 mL
  Animal paw volume percent change: 67.62% and 63.35% and 90.35% and 108.88% and 21.62%
Day 19, R paw, 30 mg/kg
  Mean animal paw volume ± SD: 1.74 mL
Day 19, 3 mg/kg
  Detailed Clinical Scores: left forelimb: 1 and 0
  Detailed Clinical Scores: left hind limb: 4
  Detailed Clinical Scores: right forelimb: 0
  Detailed Clinical Scores: right hind limb: 4 and 3
  Detailed Clinical Scores: score: 9 and 7
  Average detailed clinical score, left forelimb: 1.13
  Average detailed clinical score, left hind limb: 4.00
  Average detailed clinical score, right forelimb: 1.00
  Average detailed clinical score, right hind limb: 3.75
  Average detailed clinical score, score: 9.88
  Mean overall clinical score ± SD: 10 ± 3
  Overall clinical score: 9 and 7 (2×) and 8 (2×) and 16 and 12 (2×)
Day 19, 10 mg/kg
  Average detailed clinical score, left forelimb: 0.00
  Average detailed clinical score, left hind limb: 2.38
  Average detailed clinical score, right forelimb: 1.13
  Average detailed clinical score, right hind limb: 2.88
  Average detailed clinical score, score: 6.38
  Mean overall clinical score ± SD: 6 ± 4
  Overall clinical score: 7 and 6 and 12
Day 19, 30 mg/kg
  Average detailed clinical score, left forelimb: 0.00
  Average detailed clinical score, left hind limb: 1.63
  Average detailed clinical score, right forelimb: 0.25
  Average detailed clinical score, right hind limb: 1.75
  Average detailed clinical score, score: 3.63
  Mean overall clinical score ± SD: 4 ± 3
Day 21, L paw, 3 mg/kg
  Mean animal paw volume ± SD: 2.67 mL
  Animal paw volume percent change: 90.42% and 128.52% and 109.51% and 86.25% and 104.98% and 93.04% and 80.15%
Day 21, L paw, 10 mg/kg
  Mean animal paw volume ± SD: 2.09 mL
  Animal paw volume percent change: 71.48% and 60.71% and 92.61% and 105.06% and 13.03%
Day 21, L paw, 30 mg/kg
  Mean animal paw volume ± SD: 1.82 mL
Day 21, R paw, 3 mg/kg
  Mean animal paw volume ± SD: 2.59 mL
  Animal paw volume percent change: 69.20% and 117.60% and 97.35% and 74.25% and 106.13% and 105.58% and 84.64%
Day 21, R paw, 10 mg/kg
  Mean animal paw volume ± SD: 2.08 mL
  Animal paw volume percent change: 66.90% and 62.15% and 89.58% and 106.95% and 21.62%
Day 21, R paw, 30 mg/kg
  Mean animal paw volume ± SD: 1.79 mL
Day 21, 3 mg/kg
  Average detailed clinical score, left forelimb: 1.00
  Average detailed clinical score, left hind limb: 4.00
  Average detailed clinical score, right forelimb: 1.00
  Average detailed clinical score, right hind limb: 3.75
  Average detailed clinical score, score: 9.75
  Mean overall clinical score ± SD: 10 ± 3
  Overall clinical score: 9 and 7 (2×) and 8 (2×) and 14 and 13 and 12
Day 21, 10 mg/kg
  Average detailed clinical score, left forelimb: 0.00
  Average detailed clinical score, left hind limb: 2.50
  Average detailed clinical score, right forelimb: 1.25
  Average detailed clinical score, right hind limb: 2.75
  Average detailed clinical score, score: 6.50
  Mean overall clinical score ± SD: 7 ± 4
  Overall clinical score: 7 and 6 and 12 (2×)
Day 21, 30 mg/kg
  Average detailed clinical score, left forelimb: 0.00
  Average detailed clinical score, left hind limb: 1.88
  Average detailed clinical score, right forelimb: 0.13
  Average detailed clinical score, right hind limb: 1.63
  Average detailed clinical score, score: 3.63
  Mean overall clinical score ± SD: 4 ± 3
